*1 amine or outer side, *2 acyl side, *3 side chain or, on linkers, in order; H or OH if unused. Where a SMILES comes first, the peptide text is derived from it. Bridges are numbered along the chain shown (N, C = ends). [ ]: non-standard residue; d: D form. X1 = O=C(O)CCCCCCCCCCCCCCCCCCC(=O)N[C@@H](CCCCNC(=O)COCCOCCNC(=O)COCCOCCNC(=O)CCC(=O)N(CCNC(=O)C[*:1])CCNC(=O)C[*:2])C(=O)O; Phe(2-F) = N[C@@H](Cc1ccccc1F)C(=O)O; αMeL = CC(C)C[C@](C)(N)C(=O)O; αMeK = C[C@](N)(CCCCN)C(=O)O; αMeS = C[C@](N)(CO)C(=O)O; Aib = CC(C)(N)C(=O)O
Columns and labels:
Format in all cases: cell-based
GLP-1R = target: T1, GLP-1R (Homo sapiens, UniProt P43220); test: CreLuc method (CRE-luciferase reporter), HEK293/pGM-CREB-L-Luc/GLP-1R pool; conditions: 6 h incubation, read-out: EC50 (pM) for each receptor GLP-1R
T1 construct: expressed in transfected cells
T1 sequence (P43220 24-463, species assumed): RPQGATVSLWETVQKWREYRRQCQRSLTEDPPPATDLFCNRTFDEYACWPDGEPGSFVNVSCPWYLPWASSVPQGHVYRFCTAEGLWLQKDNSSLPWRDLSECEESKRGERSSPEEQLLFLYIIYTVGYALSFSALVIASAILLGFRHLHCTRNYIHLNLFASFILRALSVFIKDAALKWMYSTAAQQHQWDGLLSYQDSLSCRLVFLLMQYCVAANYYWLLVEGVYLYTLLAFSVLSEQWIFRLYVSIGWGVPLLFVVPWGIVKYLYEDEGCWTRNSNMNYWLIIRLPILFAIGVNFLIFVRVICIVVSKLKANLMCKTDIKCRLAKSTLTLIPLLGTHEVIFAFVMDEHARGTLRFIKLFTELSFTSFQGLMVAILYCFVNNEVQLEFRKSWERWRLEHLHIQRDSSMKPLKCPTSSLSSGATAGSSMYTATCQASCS
Summary of the method: (§1)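 Stable HEK293 pools co-expressing each receptor with a CRE-luciferase reporter were plated at 20,000 cells/well in freestyle medium and treated with compound dilution series for 6 h at 37 °C. Luminescence was read with ONE-GLO to derive EC50.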

GIPR [1] = target: T2, GIPR (Homo sapiens, UniProt P48546); test: CreLuc method (CRE-luciferase reporter), HEK293/pGM-CREB-L-Luc/GIPR pool; conditions: 6 h incubation, read-out: EC50 (pM) for each receptor GIPR
T2 construct: expressed in transfected cells
T2 sequence (P48546 22-466): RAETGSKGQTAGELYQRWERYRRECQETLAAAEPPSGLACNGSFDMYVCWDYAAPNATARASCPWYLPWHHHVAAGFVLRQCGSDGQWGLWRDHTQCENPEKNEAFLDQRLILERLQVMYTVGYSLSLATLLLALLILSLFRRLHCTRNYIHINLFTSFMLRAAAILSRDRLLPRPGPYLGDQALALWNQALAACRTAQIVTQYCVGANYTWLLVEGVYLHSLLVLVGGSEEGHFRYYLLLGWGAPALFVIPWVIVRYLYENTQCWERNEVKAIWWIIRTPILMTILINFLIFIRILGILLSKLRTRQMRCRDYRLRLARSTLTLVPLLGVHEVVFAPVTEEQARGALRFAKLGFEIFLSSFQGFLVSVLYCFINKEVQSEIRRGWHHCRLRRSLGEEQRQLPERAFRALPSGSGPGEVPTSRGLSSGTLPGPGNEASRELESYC
Summary of the method: as §1

GCGR [2] = target: T3, GCGR (Homo sapiens, UniProt P47871); test: CreLuc method (CRE-luciferase reporter), 293HEK/pGM-CREB-L-Luc/GCGR pool; conditions: 6 h incubation, read-out: EC50 (pM) for each receptor GCGR
T3 construct: expressed in transfected cells
T3 sequence (P47871 26-477, species assumed): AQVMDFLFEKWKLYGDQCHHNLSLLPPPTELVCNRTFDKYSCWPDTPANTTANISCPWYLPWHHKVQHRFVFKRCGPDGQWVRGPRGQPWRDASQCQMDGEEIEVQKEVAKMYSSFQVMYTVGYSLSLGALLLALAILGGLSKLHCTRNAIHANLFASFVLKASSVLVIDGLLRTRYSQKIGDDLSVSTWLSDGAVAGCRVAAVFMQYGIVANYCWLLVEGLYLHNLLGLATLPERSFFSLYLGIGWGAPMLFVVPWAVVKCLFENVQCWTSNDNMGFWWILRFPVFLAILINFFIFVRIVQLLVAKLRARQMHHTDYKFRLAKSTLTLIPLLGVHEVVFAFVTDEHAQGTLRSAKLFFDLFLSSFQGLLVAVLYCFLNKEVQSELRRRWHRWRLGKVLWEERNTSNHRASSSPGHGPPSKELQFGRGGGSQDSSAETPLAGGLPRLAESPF
Summary of the method: as §1

GIPR [3] = target: T2, GIPR; test: cAMP method (HTRF cAMP detection kit), HEK293/pGM-CREB-L-Luc/GIP pool; conditions: read-out: EC50 (pM) for each receptor GIPR
Description: (§2) 2. Insulinotropic analogues can bind to target receptors on the cell membrane, activate the receptors, and induce release. The activity of the test substance can be determined using the HTRF method with a cAMP detection kit. Therefore, the cAMP method can be used to detect the target peptide derivatives (or polypeptide derivatives, i.e., TG1-TG86) prepared in Example 1 and Example 2. […] The test cell line was selected, treated with cAMP-specific trypsin for digestion. 3 mL of serum-free DMEM culture medium was added, and the cells were pipetted, resuspended, and counted. 5 µL of IBMX (prepared with serum-free DMEM medium, 0.5 mM) and test cells (5 µL/7500 cells/well) were added in a 384-well plate sequentially. The plate was incubated at 37°C under 5% CO2 for 30 min, followed by the addition of cAMP-d2 (5 µL, 1x) and Anti-cAMP-Cryptate (5 µL, 1x). The mixture was kept at room temperature for 1 h, after which the HTRF value was measured using a chemiluminescent microplate reader, and the determination result was recorded. […] Table 4: EC50 values for target peptide derivatives

GCGR [4] = target: T3, GCGR; test: cAMP method (HTRF cAMP detection kit), HEK293/pGM-CREB-L-Luc/GCG pool; conditions: read-out: EC50 (pM) for each receptor GCGR
Description: as §2

CC[C@H](C)[C@H](NC(=O)[C@H](Cc1ccccc1)NC(=O)[C@H](C)NC(=O)[C@@H]1CSCC(=O)NCCN(C(=O)CCC(=O)NCCOCCOCC(=O)NCCOCCOCC(=O)NCCCC[C@H](NC(=O)CCCCCCCCCCCCCCCCCCC(=O)O)C(=O)O)CCNC(=O)CSC[C@H](NC(=O)[C@H](CCCCN)NC(=O)[C@H](CC(=O)O)NC(=O)[C@H](CC(C)C)NC(=O)[C@](C)(CC(C)C)NC(=O)[C@@H](NC(=O)[C@H](CO)NC(=O)[C@H](Cc2ccc(O)cc2)NC(=O)[C@H](CC(=O)O)NC(=O)[C@H](CO)NC(=O)[C@@H](NC(=O)[C@H](Cc2ccccc2F)NC(=O)[C@@H](NC(=O)CNC(=O)[C@H](CCC(N)=O)NC(=O)C(C)(C)NC(=O)[C@@H](N)Cc2ccc(O)cc2)[C@@H](C)O)[C@@H](C)O)[C@@H](C)CC)C(=O)N[C@@H](C)C(=O)N[C@@H](CCC(N)=O)C(=O)N1)C(=O)N[C@@H](CCC(=O)O)C(=O)N[C@@H](Cc1ccc(O)cc1)C(=O)N[C@@H](CC(C)C)C(=O)N[C@@H](CC(C)C)C(=O)N[C@@H](C)C(=O)NCC(=O)NCC(=O)N1CCC[C@H]1C(=O)N[C@@H](CO)C(=O)N[C@@H](CO)C(=O)NCC(=O)N[C@@H](C)C(=O)N1CCC[C@H]1C(=O)N1CCC[C@H]1C(=O)N1CCC[C@H]1C(=O)N[C@@H](CO)C(N)=O [TG59] (H-Y[Aib]QGT[Phe(2-F)]TSDYSI[αMeL]LDKCAQCAFIEYLLAGGPSSGAPPPS-NH2; linker 17-20 via X1)
EC50 (GLP-1R): 51.8 pM
EC50 (GIPR [1]): 30.7 pM
EC50 (GCGR [2]): 392 pM
EC50 (GIPR [3]): 3.9 pM
EC50 (GCGR [4]): 9.1 pM

CC[C@H](C)[C@H](NC(=O)[C@H](Cc1ccccc1)NC(=O)[C@H](C)NC(=O)[C@@H]1CSCC(=O)NCCN(C(=O)CCC(=O)NCCOCCOCC(=O)NCCOCCOCC(=O)NCCCC[C@H](NC(=O)CCCCCCCCCCCCCCCCCCC(=O)O)C(=O)O)CCNC(=O)CSC[C@H](NC(=O)[C@](C)(CCCCN)NC(=O)[C@H](CC(=O)O)NC(=O)[C@H](CC(C)C)NC(=O)[C@](C)(CC(C)C)NC(=O)[C@@H](NC(=O)[C@](C)(CO)NC(=O)[C@H](Cc2ccc(O)cc2)NC(=O)[C@H](CC(=O)O)NC(=O)[C@H](CO)NC(=O)[C@@H](NC(=O)[C@H](Cc2ccccc2F)NC(=O)[C@@H](NC(=O)CNC(=O)[C@H](CCC(N)=O)NC(=O)C(C)(C)NC(=O)[C@@H](N)Cc2ccc(O)cc2)[C@@H](C)O)[C@@H](C)O)[C@@H](C)CC)C(=O)N[C@@H](C)C(=O)N[C@@H](CCC(N)=O)C(=O)N1)C(=O)N[C@@H](CCC(=O)O)C(=O)N[C@@H](Cc1ccc(O)cc1)C(=O)N[C@@H](CC(C)C)C(=O)N[C@@H](CC(C)C)C(=O)N[C@@H](C)C(=O)NCC(=O)NCC(=O)N1CCC[C@H]1C(=O)N[C@@H](CO)C(=O)N[C@@H](CO)C(=O)NCC(=O)N[C@@H](C)C(=O)N1CCC[C@H]1C(=O)N1CCC[C@H]1C(=O)N1CCC[C@H]1C(=O)N[C@@H](CO)C(N)=O [TG62] (H-Y[Aib]QGT[Phe(2-F)]TSDY[αMeS]I[αMeL]LD[αMeK]CAQCAFIEYLLAGGPSSGAPPPS-NH2; linker 17-20 via X1)
EC50 (GLP-1R): 371 pM
EC50 (GIPR [1]): 27.9 pM
EC50 (GCGR [2]): 783 pM
EC50 (GIPR [3]): 6 pM
EC50 (GCGR [4]): 62.2 pM

From patent EP4790066A1, “GLP-1R/GIPR/GCGR TRIPLE AGONIST ANALOGUE AND USE THEREOF” (Shenzhen Bay Laboratory, priority 2023, dated 2025)
